Patent US7563598B2 (Ambergen, Inc., priority 2004, dated 2009)
Entries after “also recorded” stand apart in the source; their conditions may differ. Like-named read-outs stand apart in the source and are kept apart here. Square brackets hold non-standard residues; d marks the D form. Peptide text beside a SMILES is read from it. * marks the point of attachment. Nva = CCC[C@H](N)C(=O)O; Cbz = O=C(OCc1ccccc1)*

Key:
[1] = tested on: proteases in rabbit reticulocyte extract; conditions: extract pre-treated with inhibitor, then R6; MALDI
Method: In this experiment, protease inhibitors were tested to inhibit the degradation of the peptide R6 (described above). In one experiment, 10 μL of rabbit reticulocyte extract was pre-treated by incubating with a specific protease inhibitor such as ebelactone or 2-LeuLeuNVa-CHO for 10-15 min. Following pretreatment, peptide R6 was added to above translation mix and incubated for 10 min at 30° C. The reaction was terminated by addition of 100 μL of 100 mM EDTA and the solution was immediately applied to the microcolumn containing 1 μL of Sigma ANTI-FLAG beads. The beads were then washed with 50 μL of 20 mM Tris-HCl, pH 7.2 and the bound peptide was eluted with approximately 4 μL of matrix solution (CHCA/acetonitrile/TFA) directly onto a MALDI plate. In the control experiment, extract pre-treated with buffer was used and processed as described above.
2 μL of the above protease inhibitor solution was added to 10 μL of the translation mixture.

[2] = tested on: protein synthesis in rabbit reticulocyte lysate; type: biochemical
[3] = heat denatured rabbit reticulocyte extract (by boiling at 100° C. for 5 min in presence of SDS); conditions: 30° C.
[4] = tested on: proteolysis in PURE I reconstituted E. coli translation system; type: biochemical
protein synthesis = experiment: Effect of protease inhibitors on protein synthesis in the translation system; type: biochemical
[5] = zonally purified E. coli ribosomes
[6] = rabbit reticulocyte lysate (RRL extract); conditions: 30° C., up to 5 min
[7] = Solution B of the PURE kit (Post-Genome Institute); conditions: 37 degrees, up to 20 minutes (or 10 minutes)
[8] = PURE I reconstituted E. coli translation system, all components except the DNA; conditions: 37° C., up to 15 min
[9] = tested on: protease activity of E. coli translation extract; experiment: Mass spectrometry assay of inhibition of R6 degradation in E. coli translation extract; conditions: extract pre-treated with inhibitor, then R6; MALDI
Method: In this experiment, protease inhibitors were tested to inhibit the degradation of the peptide R6 (described above). […] Following pretreatment, peptide R6 was added to above translation mix and incubated for 10 min at 30° C. The reaction was terminated by addition of 100 μL of 100 mM EDTA and the solution was immediately applied to the microcolumn containing 1 μL of Sigma ANTI-FLAG beads. The beads were then washed with 50 μL of 20 mM Tris-HCl, pH 7.2 and the bound peptide was eluted with approximately 4 μL of matrix solution (CHCA/acetonitrile/TFA) directly onto a MALDI plate. In the control experiment, extract pre-treated with buffer was used and processed as described above. Similar experiments were carried out using E. coli translation extract.

[10] = tested on: rabbit reticulocyte lysate, wheat germ extract, E. coli S30 extract; conditions: within several minutes after incubation with the translation mixtures
Method: 100 picomoles of the synthetic R6 peptide in 1 microliter of water is added to 5 ul of a test solution and incubated for 20 minutes (or 10 minutes) at 37 degrees. 50 ul of PBS is then added to the test mixture and the resulting solution is passed over a 1 microliter anti-FLAG microcolumn (which recognizes the epitope sequence at the N terminus of the R6 peptide). The column is washed with 50 ul of deionized water and the bound peptides are eluted directly onto the maldi plate using 1 microliter of CHCA matrix in 50% acetonitrile/0.2% TFA/49.8% deionized water. The intact R6 peptide and degradation products are detected by Maldi-Tof mass spectrometry in positive ion linear mode.

Method for Amber-PURE: In order to remove the protease activity from solution B, 100 ul of solution B was added to 200 ul of deionized water and spun through a YM100 Microcon filter with a 100 kDa cut-off (Millipore, Inc) at 10,000 rpm for 5 minutes in a benchtop microfuge at room temperature. […] A 10 ul aliquot contains 3 ul of diluted and filtered solution B, 7 ul of solution A and 10 picomoles of zonally purified ribosomes.
In this example, the protease-depleted system is used to produce the reference peptide (R6) by in vitro translation using DNA coding for the R6 peptide.

For `CCC[C@@H](C=O)NC(=O)[C@H](CC(C)C)NC(=O)[C@H](CC(C)C)NC(=O)OCc1ccccc1` [2-LeuLeuNvaCHO] (Cbz-Leu-Leu-[Nva]-aldehyde), the “inhibition of R6 degradation (protease activity) in rabbit reticulocyte extract” value [1] was “significant reduction in protease activity”.

In the case of `C[C@@H]1C[C@@H]([C@H](O)CC2CC(=O)NC(=O)C2)C(=O)[C@@H](C)C1` [cycloheximide], the “inhibition of protein synthesis” value [2] is reported as “completely inhibited”.

With MYTDIEMNRLGK the not cleaved [3] was “retains complete peptide signal”.

With `NCCc1ccc(S(=O)(=O)F)cc1` [AEBSF] the “inhibition of R6 proteolysis in PURE I” value ([4]; inhibitor pre-incubated 15-30 min, R6 15 min at 37° C.) was “excellent inhibition” and the “inhibition of protein synthesis” value (protein synthesis; if used together with "Pefabloc protector") was “could also inhibit protein synthesis”.

For Ebelactone, the “inhibition of R6 degradation (protease activity) in rabbit reticulocyte extract” value [1] was “only weak protease inhibition”.

With MDYKDDDDKRRRRRRFFF the not cleaved [5] was “devoid of protease activity”, the cleaved bond [6] was “Phe-Phe, minor, 1 min; also recorded: Arg-Arg, 1 min” and the cleaved bond [7] was “R-R”. The fragment found [8] was “MDYKDDDDKRRRRR, major, 15 min”.

In the case of `CC(C)C[C@H](NC(=O)[C@@H](NC(=O)N[C@@H](Cc1ccccc1)C(=O)O)[C@@H]1CCN=C(N)N1)C(=O)N[C@H](C=O)Cc1ccccc1` [Chymostatin], the “inhibition of protease activity (R6 degradation) in E. coli translation extract” value [9] is reported as “only weakly inhibited”.

For aprotinin, the “inhibition of protein synthesis” value (protein synthesis) was “inhibit protein synthesis” and the “inhibition of protease activity (R6 degradation) in E. coli translation extract” value [9] was “significant inhibition”.

In the case of “R6: protease-sensitive peptide, sequence MDYKDDDDKRRRRRRFFF (SEQ ID NO:152), FLAG epitope at the N-terminus (N-terminal FLAG epitope)”, the “intact peptide after incubation with PURE I mixture” value ([4]; 15 min, 37° C., no inhibitor) is reported as “disappearance of the intact R6 peptide”, the “degradation of sub-nanomolar amounts of peptide” value [10] is reported as “complete degradation” and the “peptide products obtained by in vitro translation” value (PURE) is reported as “correspond to degradation products”. For the same compound, the “peptide product obtained by in vitro translation” value (Amber-PURE) was “intact patent peptide”.
